Among the test systems are A549 NSCLC; CAKI-1 renal; EKVX NSCLC; IGROV1 ovarian; LOX IMVI melanoma; M14 melanoma; NCI-H226 lung; RPMI-8226 leukemia; SF-268 CNS; TK-10 renal.
Common to all, as to assay: DTP human tumour cell line panel, 48 h

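Method: 48-hour compound exposure of cells in 96-well plates, five concentrations, linear interpolation of endpoints. At the GI50, growth is halved. Definition used: TGI = concentration required for complete inhibition of growth.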 Bounds are passed on as bounds.

A word on the TGI: it is the concentration giving total growth inhibition. High values mean lower sensitivity of the cells, low ones greater sensitivity of the cells. For `COc1ccc(C(=O)c2ccc(-n3cc(/C=C/[N+](=O)[O-])c4ccccc43)cc2)cc1`, the TGI in the assay on A549 NSCLC was > 100 µM; in the assay with CAKI-1 renal it was > 52.3 µM; in the assay on EKVX NSCLC, 55 µM; in the assay on IGROV1 ovarian, 26.2 µM; with LOX IMVI melanoma, 19.2 µM; in the assay on M14 melanoma, > 74.5 µM. In addition, the TGI in the assay with NCI-H226 lung is > 92.9 µM; with RPMI-8226 leukemia, > 100 µM; in the assay on SF-268 CNS, > 54.1 µM; in the assay with TK-10 renal it was 16.8 µM.
Regarding `CC1=C2NCN(C)N=C2C(C#N)(C#N)C1(C#N)C#N`, the TGI was > 100 µM in the assay with A549 NSCLC; 17.9 µM with CAKI-1 renal; > 57.3 µM in the assay on EKVX NSCLC; > 63 µM in the assay on IGROV1 ovarian; > 54.4 µM with LOX IMVI melanoma; > 66.4 µM in the assay with M14 melanoma. Also, the TGI in the assay with NCI-H226 lung is > 100 µM; in the assay with RPMI-8226 leukemia, 37.3 µM; in the assay with SF-268 CNS, > 76.6 µM; in the assay on TK-10 renal it was 31 µM.
Regarding `CC(C)C1CC(CO)(CNc2cc(Cl)nc(N)n2)C1` (stereo not drawn), the TGI in the assay with A549 NSCLC, in the assay on CAKI-1 renal, with EKVX NSCLC, in the assay on IGROV1 ovarian, in the assay on LOX IMVI melanoma and in the assay with NCI-H226 lung was > 100 µM throughout. Moreover, the TGI in the assay with RPMI-8226 leukemia, in the assay with SF-268 CNS and with TK-10 renal was > 100 µM each time.
Regarding `O=C(CSc1nc2ccc(I)cc2c(=O)n1Cc1ccccc1)NN1C(=O)CCC1=O`, the TGI is > 100 µM with A549 NSCLC; 6.91 µM in the assay with CAKI-1 renal; > 100 µM with EKVX NSCLC; 90.9 µM in the assay with IGROV1 ovarian; > 100 µM in the assay on LOX IMVI melanoma; > 100 µM with M14 melanoma. In addition, the TGI is 84.6 µM in the assay on NCI-H226 lung, > 100 µM in the assay with RPMI-8226 leukemia, > 100 µM in the assay with SF-268 CNS and > 100 µM in the assay with TK-10 renal.
With `COC(=O)c1ccc(/C=C2\CCc3ccccc3C2=O)cc1`, the TGI in the assay on A549 NSCLC, in the assay with CAKI-1 renal, in the assay on EKVX NSCLC, in the assay with IGROV1 ovarian, with LOX IMVI melanoma and in the assay on M14 melanoma was > 100 µM each time. Besides, the TGI in the assay on NCI-H226 lung, in the assay with RPMI-8226 leukemia, in the assay with SF-268 CNS and in the assay on TK-10 renal was > 100 µM each time.
In the case of `Cc1cn([C@H]2[C@@H](CO)C[C@H]2O)c(=O)[nH]c1=O`, the TGI in the assay with A549 NSCLC, in the assay on CAKI-1 renal, in the assay on EKVX NSCLC, in the assay on IGROV1 ovarian, in the assay with LOX IMVI melanoma and with NCI-H226 lung was > 100 µM each time. Moreover, the TGI in the assay on RPMI-8226 leukemia, in the assay on SF-268 CNS and in the assay with TK-10 renal was > 100 µM each time.
On to `CC(=O)c1ccc(NC(=O)CSc2nc(C)nc3c2sc(=S)n3-c2ccccc2)cc1`, for which the TGI with A549 NSCLC, in the assay with CAKI-1 renal, in the assay with EKVX NSCLC, in the assay on IGROV1 ovarian, in the assay on LOX IMVI melanoma and in the assay on M14 melanoma was > 3.16 µM in each case. For the same compound, the TGI in the assay on NCI-H226 lung, in the assay on RPMI-8226 leukemia, with SF-268 CNS and in the assay with TK-10 renal was > 3.16 µM throughout.
For the compound `Cc1cc2occ(-c3ccc(Cl)cc3)c2c(=O)o1`, the TGI in the assay on A549 NSCLC, in the assay with CAKI-1 renal, in the assay with EKVX NSCLC, with IGROV1 ovarian, in the assay with LOX IMVI melanoma and with M14 melanoma was > 100 µM throughout. The total growth inhibition concentration (TGI) in the assay with NCI-H226 lung, with RPMI-8226 leukemia, in the assay on SF-268 CNS and with TK-10 renal was > 100 µM each time.
Consider `CC/C(Cl)=N\OC(=O)Nc1ccc(F)cc1F`, for which the TGI with A549 NSCLC worked out at 39.8 µM; with CAKI-1 renal it was 3.09 µM; in the assay with EKVX NSCLC, 20.3 µM; in the assay on IGROV1 ovarian, 31.9 µM; with LOX IMVI melanoma it was 6.57 µM; in the assay on M14 melanoma it was 22.3 µM. Further, the TGI with NCI-H226 lung was 34.2 µM; in the assay with RPMI-8226 leukemia, 3.57 µM; in the assay on SF-268 CNS, > 57.7 µM; with TK-10 renal, 24.3 µM.
As for `O=S1(=O)CCN(c2ccccc2CC(c2c[nH]c3ccccc23)c2c[nH]c3ccccc23)CC1`, the TGI with A549 NSCLC was > 78.2 µM; in the assay on CAKI-1 renal, > 85.2 µM; with EKVX NSCLC it was 55.7 µM; with IGROV1 ovarian it was 33.4 µM; in the assay with LOX IMVI melanoma it was 11.6 µM; in the assay with M14 melanoma, 20.5 µM. Besides, the TGI in the assay with NCI-H226 lung was 42.7 µM; with RPMI-8226 leukemia, 5.01 µM; in the assay on SF-268 CNS it was 62.2 µM; in the assay on TK-10 renal, 19.8 µM.
In the case of `CCN(CC)CCN(C)CCc1ccc(Br)cc1`, the TGI is > 100 µM in the assay on A549 NSCLC; > 100 µM in the assay on CAKI-1 renal; > 100 µM with EKVX NSCLC; > 100 µM in the assay with IGROV1 ovarian; > 100 µM in the assay on LOX IMVI melanoma; 33.1 µM in the assay with M14 melanoma. For the same compound, the TGI in the assay on NCI-H226 lung, in the assay on RPMI-8226 leukemia, in the assay with SF-268 CNS and in the assay on TK-10 renal was > 100 µM in each case.
Broadly, the GI50 is the concentration that inhibits growth by half. `COc1cc(-n2cc(-c3cc(O)c(C/C=C(\C)CCC=C(C)C)c(O)c3)nn2)cc2c1O[C@]1(C)CC[C@@H](O)C(C)(C)[C@H]1C2`: the GI50 in the assay with A549 NSCLC is 1.12 µM; in the assay with CAKI-1 renal it was 0.43 µM; in the assay on EKVX NSCLC, 2.28 µM; in the assay with IGROV1 ovarian it was 1.85 µM; with LOX IMVI melanoma it was 0.186 µM; in the assay on M14 melanoma it was 0.787 µM. The GI50 in the assay on NCI-H226 lung is 5.98 µM; with RPMI-8226 leukemia it was 0.0324 µM; in the assay on SF-268 CNS, 2.03 µM; with TK-10 renal, 7.97 µM. Further, the TGI was 20.7 µM in the assay with A549 NSCLC; > 100 µM with CAKI-1 renal; 44.1 µM in the assay on EKVX NSCLC; 28.5 µM in the assay on IGROV1 ovarian; 1.09 µM with LOX IMVI melanoma; 31 µM with M14 melanoma. Moreover, the concentration for total growth inhibition (TGI) in the assay with NCI-H226 lung was 68.4 µM; in the assay on RPMI-8226 leukemia it was 0.475 µM; in the assay with SF-268 CNS it was 30.4 µM; in the assay on TK-10 renal, > 100 µM.

The values above are taken from PubChem BioAssay (NCI).
